Test results reported in US12589086B2, “Compositions and methods for the treatment of primary biliary cholangitis” (Genfit, priority 2020, dated 2026).

System: patients with PBC
Experiment: phase II study of elafibranor for the treatment of PBC (serum ALP, 12 weeks)
Assay type: in vivo, human
Conditions: for treatment effect estimate vs placebo, relative change in serum ALP (supportive analysis): ANCOVA with baseline ALP as covariate; for treatment effect estimate vs placebo, relative change in serum ALP (primary efficacy analysis): non-parametric randomization-based ANCOVA with baseline ALP as covariate, p<0.001; for mean relative change (%) from baseline to Endpoint in serum ALP: placebo 3.2%
Method: Elafibranor (2-(2,6-dimethyl-4-{3 [4-(methylsulfanyl)phenyl]-3-oxopropen-1-yl}phenoxy)-2-methylpropanoic acid) is a drug currently tested in a pivotal phase III study for the treatment of PBC. Elafibranor was also evaluated in a phase II study for the treatment of PBC. […] Elafibranor (2-(2,6-dimethyl-4-{3-[4-(methylsulfanyl)phenyl]-3-oxopropen-1-yl}phenoxy)-2-methylpropanoic acid) was supplied as 80 mg white to offwhite round coated tablets with no printed inscription. A placebo tablet (of the same size as the corresponding active tablet) to match elafibranor 80 mg was provided as a white to off-white round coated tablet with no printed inscription. The placebo tablet contained the same excipients as the active formulation as well as lactose monohydrate (which was used in place of the active ingredient). […] The treatment effect estimate was −52.0% (95% Cl [−62.5; −41.5]) for the elafibranor 80 mg treatment group and −43.9% (95% Cl [−55.7; −32.1]) for the elafibranor 120 mg treatment group (FIG. 1). The primary efficacy supportive analysis conducted using an ANCOVA with baseline ALP as a covariate was consistent with the primary efficacy analysis. The treatment effect estimate was −51.4% (95% Cl [−63.3; −39.5]) for the elafibranor 80 mg treatment group and −43.9% (95% Cl [−55.8; −31.9]) for the elafibranor 120 mg treatment group (FIG. 1).

Compound: CSc1ccc(C(=O)C=Cc2cc(C)c(OC(C)(C)C(=O)O)c(C)c2)cc1 [elafibranor, 2-(2,6-dimethyl-4-{3-[4-(methylsulfanyl)phenyl]-3-oxopropen-1-yl}phenoxy)-2-methylpropanoic acid]
- absolute change from baseline in serum ALP vs placebo at Endpoint (80 mg (p<0.001) and 120 mg treatment groups): statistically significantly different from placebo
- relative change from baseline in serum ALP vs placebo at Endpoint (80 mg and 120 mg treatment groups): statistically significantly different from placebo
- mean ALP values from baseline through Week 12 (80 mg and 120 mg treatment groups, FIG. 2): declining mean ALP values
- mean relative changes (%) in ALP values from baseline through Week 12 (80 mg and 120 mg treatment groups, beginning at Week 2 up through Week 12, FIG. 3): decrease in ALP values over time
- treatment effect estimate vs placebo, relative change in serum ALP (supportive analysis) (80 mg, 95% CI [−63.3, −39.5]): −51.4%
- treatment effect estimate vs placebo, relative change in serum ALP (primary efficacy analysis) (80 mg, 95% CI [−62.5, −41.5]): −52.0%
- treatment effect estimate vs placebo, relative change in serum ALP (supportive analysis) (120 mg, 95% CI [−55.8, −31.9]): −43.9%
- treatment effect estimate vs placebo, relative change in serum ALP (primary efficacy analysis) (120 mg, 95% CI [−55.7, −32.1]): −43.9%
- reduction in plasma ALP levels from baseline compared to placebo (PBC patients): consistent, statistically significant reduction
- mean relative change (%) from baseline to Endpoint in serum ALP (elafibranor 80 mg treatment group, PBC patients): −48.3%
- mean relative change (%) from baseline to Endpoint in serum ALP (elafibranor 120 mg treatment group, PBC patients): −40.6%
- safety and tolerability in patients (in vivo): safe and well-tolerated
